Measurements as given in patent publication US20120039820A1 (Glaxo Group Limited, priority 2009, published 2012).

Columns and labels:
Escherichia coli = assay: MIC test (broth microdilution, turbidity); assay type: cell-based; settings: TSB, 37° C., 24 hours
Experimental: (§1) The MIC of a material composition was determined by the following method. A fresh culture of the test inoculum of each bacterium was diluted in sterile 0.1% special peptone solution to give a concentration of approximately 10^6 colony forming units (cfu) per ml. Test samples of material were diluted in sterile tryptone soya broth (TSB) to give an initial stock solution, typically of 1% or 2% (10,000 or 20,000 ppm). However, it will be appreciated that the concentration of the initial stock solution of material can be varied if desired to investigate a different range of concentrations. Each row of a standard, 96-well plastic microtitre plate (labelled A-H) was allocated to one sample, i. e. eight samples per plate. Row H contained only TSB for use as a bacterial control to indicate the degree of turbidity resulting from bacterial growth in the absence of any test material.
(§2) Aseptically, 200 μl of the initial dilution of material was transferred to the 1st and 7th well of the appropriate row. All other test wells were filled with 100 μl of sterile TSB using an 8- channel micro-pipette. The contents of each of the wells in column 1 were mixed by sucking samples up and down the pipette tips, before 100 μl was transferred to column 2.
(§3) The same sterile pipette tips were used to transfer 100 μl of each well in column 7 into the appropriate well in column 8. This set of eight tips was then discarded into disinfectant solution. Using eight fresh, sterile tips the process was repeated by transferring 100 μl from column 2 into column 3 (and into 8 and 9). The process was continued until all the wells in columns 6 and 12 contained 200 μl. After mixing, 100 μl was discarded from wells in columns 6 and 12 to waste. Finally, 100 μl of pre-diluted bacterial test culture (approx 10^6 cfu/ml) was added, thus giving a final volume of 200 μl in each well.
(§4) A blank plate was prepared for each set of eight samples in exactly the same way, except that 100 μl of sterile TSB was added instead of the bacterial culture. This plate was used as the control plate against which the test plate (s) could be read.
(§5) Test and control plates were then sealed using autoclave tape and incubated at 37° C. for 24 hours. The wells were examined after 24 hours for turbidity to determine if the material had inhibited growth or not. Plates are then read in a suitable microtitre plate reader at an absorbance of 540 nm as a measure of turbidity resulting from bacterial growth. The control, un-inoculated plate for each set of samples was read first, and the plate reader then programmed to use the control readings to blank all other plate readings for the inoculated plates for the same set of test materials (i. e. removing turbidity due to material and possible colour changes during incubation). Thus, the corrected readings generated were absorbances resulting from turbidity from bacterial growth.

Staphylococcus aureus = assay: MIC test (broth microdilution, turbidity); assay type: cell-based; settings: TSB, 37° C., 24 hours
Experimental: as §1, §2, §3, §4, §5

Streptococcus mutans = assay: MIC test (broth microdilution, turbidity); assay type: cell-based; settings: TSB, 37° C., 24 hours
Experimental: as §1, §2, §3, §4, §5

S. aureus = assay: Kill time suspension test; assay type: cell-based, Staphylococcus aureus
Experimental: This is set aside for approximately 2 minutes. 8 ml of test product is added, a timing clock started and immediately vortexed for 5 seconds.
To 8 ml of ‘Test Sample’ add 1 ml of sterile purified water and 1 ml of synthetic saliva. This is the ‘validation solution’.
The mean number of survivors is calculated for the each test and appropriate control samples, and expressed as the log to the base 10 (Log count).

Row | Molecule | MIC (Escherichia coli) [parts per million] | MIC (Staphylococcus aureus) [parts per million] | MIC (Streptococcus mutans) [parts per million] | kill (in words) (S. aureus)
1 | Cc1cc(O)ccc1C(C)C [IPMP, 4-isopropyl-3-methylphenol] | 312 | 156 | 1250 | –
2 | zinc gluconate [Zn Gluconate] | 1560 | 6250 | 6250 | ineffective
